Patent US8252737B2, “Antimicrobial peptides and methods of use” (priority 2004, dated 2012)
≈ marks a conversion by molar mass, not a printed value.

Legend:
human erythrocytes [1] = assay: Hemolytic activity (MHC), Protocol A, 12 hours
In short: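 Twofold peptide dilutions incubated with 1% human erythrocytes in phosphate-buffered saline at 37 °C for 12 h; hemoglobin release read spectrophotometrically at 562 nm, or at 570 nm in a repeat. Hemolytic titer taken as the highest 2-fold dilution still releasing hemoglobin, versus peptide-free erythrocytes.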

[2] = Circular dichroism spectroscopy of helical structure (benign buffer and 50% TFE); type: physicochemical
In short: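 Peptide CD spectra at 25 °C, 190–250 nm, in benign buffer (50 mM KH2PO4/K2HPO4, 100 mM KCl, pH 7) and in the same buffer with 50% TFE. Samples were a 10-fold dilution of ~500 μM stock. Mean residue molar ellipticity at 222 nm gave relative α-helicity.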

[3] = tested on: Staphylococcus epidermidis
[4] = tested on: E. coli (UB 1005 wt and DC2 abs)
Procedure: (§1) The geometric mean MIC values from 6 microbial strains in this table were calculated to provide an overall evaluation of antimicrobial activity against gram-negative bacteria.
(§2) Measurement of Antimicrobial Activity—Minimal inhibitory concentrations (MICs) were determined using a standard microtiter dilution method in LB (Luria-Bertani) no-salt medium (10 g of tryptone and 5 g of yeast extract per liter). Briefly, cells were grown overnight at 37° C. in LB and diluted in the same medium. […] Plates were incubated at 37° C. for 24 hours and MICs determined as the lowest peptide concentration that inhibited growth. Alternatively, minimal inhibitory concentrations were determined using a standard microtiter dilution method in a Mueller-Hinton (MH) medium. Briefly, cells were grown overnight at 37° C. in MH broth and diluted in the same medium. […] Plates were incubated at 37° C. for 24 hours and MICs determined as the lowest peptide concentration that inhibited growth. However, for MIC determination of Pseudomonas aeruginosa clinical isolates, brain heart infusion (BH1) medium was used instead of MH broth. In addition, the bacteria were diluted to a final inoculum of 1×10^6 colony-forming units/ml.

P. aeruginosa H187 wt = tested on: P. aeruginosa H187 wt
Procedure: as §1, §2

[5] = C610 abs
Procedure: as §1, §2

S. typhimurium C610 abs = conditions: C610 abs
Procedure: as §1, §2

gram-positive bacteria = tested on: gram-positive bacteria
In short: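 Microtiter dilution in LB no-salt or Mueller-Hinton medium, with BHI for Pseudomonas aeruginosa clinical isolates (final inoculum 1×10^6 CFU/ml). Plates were incubated 24 hours at 37° C. MIC was the lowest peptide concentration inhibiting growth.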

human erythrocytes [6] = assay: Hemolytic activity (MHC), Protocol B, 18 hours; conditions: for MHC (μg/ml) hRBC: maximal peptide concentration with no hemolysis after 18 hours
In short: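 Hemolysis of 1% human erythrocytes in phosphate-buffered saline by 2-fold diluted D-peptides, incubated 18 h at 37 °C; hemoglobin release read spectrophotometrically. Value is the maximal peptide concentration producing no hemolysis, relative to erythrocytes without peptide.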

Structure (SMILES): CC[C@H](C)[C@H](NC(=O)[C@H](C)NC(=O)[C@H](CCCCN)NC(=O)[C@H](CC(C)C)NC(=O)[C@H](C)NC(=O)[C@@H](NC(=O)[C@H](Cc1c[nH]cn1)NC(=O)[C@H](CC(C)C)NC(=O)[C@@H](NC(=O)[C@@H](NC(=O)[C@H](CCCCN)NC(=O)[C@@H](C)NC(=O)[C@H](C)NC(=O)[C@H](CO)NC(=O)[C@H](CCCCN)NC(=O)[C@H](Cc1ccccc1)NC(=O)[C@@H](NC(=O)[C@H](CCCCN)NC(=O)[C@H](CC(C)C)NC(=O)[C@H](Cc1ccccc1)NC(=O)[C@H](CO)NC(=O)[C@H](CCCCN)NC(=O)[C@H](Cc1c[nH]c2ccccc12)NC(=O)[C@H](CCCCN)NC(C)=O)[C@@H](C)O)[C@@H](C)O)C(C)C)[C@@H](C)O)C(=O)N[C@@H](CO)C(=O)N[C@@H](CO)C(N)=O [NAD]
- fold decrease in hemolytic activity compared to the L-diastereomer (human erythrocytes [1]): 8
- minimal hemolytic concentration (MHC) (human erythrocytes [1]; incubation for 12 hours at 37° C. (Tables 7 and 8)): 250 µg/mL
- [θ]222 Benign ([2]; 5° C., 100 mM KCl, 50 mM PO4 pH 7.4): −4000 deg · cm^2 · dmol^−1
- % helix 50% TFE ([2]; 5° C., relative to D-V681 in 50% TFE): 89%
- [θ]222 50% TFE ([2]; 5° C., benign buffer pH 7.4 containing 50% TFE): −25000 deg · cm^2 · dmol^−1
- % helix Benign ([2]; 5° C., pH 7.4 benign, relative to D-V681 in 50% TFE): 14%
- % helix 50% TFE ([2]; 25° C., relative to NAL in 50% TFE): 85%
- [θ]222 Benign ([2]; 25° C., benign buffer (100 mM KCl, 50 mM PO4 pH 7.0)): −2,850 deg · cm^2 · dmol^−1
- [θ]222 50% TFE ([2]; 25° C., benign buffer diluted 1:1 (v/v) with TFE): −24,650 deg · cm^2 · dmol^−1
- % helix Benign ([2]; 25° C., benign buffer, relative to NAL in 50% TFE): 10%
- MIC (μg/ml) S. epidermidis C621 wt [3]: 1.6 µg/mL (≈ 0.545 µM)
- MIC (μg/ml) E. coli C500 abs ([4]; antibiotic sensitive strain): 1.6 µg/mL (≈ 0.545 µM)
- MIC (μg/ml) E. coli C498 wt ([4]; wild-type lab strain): 3.1 µg/mL (≈ 1.06 µM)
- MIC (μg/ml) Pa H188 abs (P. aeruginosa H187 wt): 1.6 µg/mL (≈ 0.545 µM)
- MIC (μg/ml) Pa H187 wt (P. aeruginosa H187 wt; H187 wt): 3.1 µg/mL (≈ 1.06 µM)
- MIC (μg/ml) St C587 wt [5]: 12.5 µg/mL (≈ 4.26 µM)
- MIC (μg/ml) St C610 abs (S. typhimurium C610 abs): 3.1 µg/mL (≈ 1.06 µM)
- MIC (μg/ml) GM (gram-positive bacteria): 2.8 µg/mL (≈ 0.954 µM)
- Hemolytic activity Fold (human erythrocytes [6]): 4
- Hemolytic activity MHC (human erythrocytes [6]; maximal peptide concentration producing no hemolysis after 18 hours, 37° C.): 31.3 µg/mL
- MHC (μg/ml) hRBC (human erythrocytes [6]; Table 11): 31.3 µg/mL
- MHC (μg/ml) hRBC (human erythrocytes [6]; Table 12): 31.3 µg/mL
- Hemolytic activity MHC (human erythrocytes [6]; red cells of human, 18 h): 31.3 µg/mL
